Patent publication US4304726A, “Process for the preparation of cholesterol derivatives” (The Green Cross Corporation, priority 1979, dated 1981)

What was measured:
[1] = Japanese Kokai No. 104,735/1978, cited from earlier work; for immunosuppressive effect: particularly cell-mediated
PHA reaction = assay: PHA reaction, 50% inhibitory concentration (immunosuppressive action in vitro); assay type: cell-based; conditions: ester form as emulsion with polyoxyethylene-polyoxypropylene copolymer, salt form as aqueous solution; for IC50: read-out: Concentration for 50% inhibition
Protocol: In accordance with the PHA method by Cooparband et al. [The Journal of Immunology, 109, (1), 154 (1972)], the compounds of this invention were tested for the 50% inhibitory concentration in the PHA reaction. Also, the effect of IRA (Immunoregulatory α-globulin) obtained according to the method of Occhino et al. [The Journal of Immunology, 110, (3), 685 (1973)] was shown as comparative test data. Among these compounds, those of the ester form were used in emulsion employing a copolymer of polyoxyethylene-polyoxypropylene having molecular weight of 8350 as a surfactant, and those of the salt form were used as aqueous solutions.

[2] = tested on: carrageenin edema of hind footpad; assay: Carrageenin hind footpad edema in rats (anti-inflammatory action); assay type: in vivo; conditions: 50 mg/kg intraperitoneally 1 h before carrageenin, 4 hours after inoculation
Protocol: Using rats, each of derivatives of 7-hydroxycholesterol and of 7-ketocholesterol shown in Table 2 was administered intraperitoneally to 5 rats of each group in a dose of 50 mg/kg (physiologically isotonic aqueous solution with a concentration of 2.0% by weight), and one hour after the administration, each 0.05 ml of 1% aqueous carrageenin solution as an inflammation-causing substance was subcutaneously inoculated at the hind footpad.
After 4 hours from the inoculation of carrageenin, the size of edema caused on the footpad was measured by means of a volume differential meter to compare with that of the control group which was given to the physiological sodium chloride aqueous solution.
The ester samples administered were in the form of emulsion employing a phospholipid as a surfactant, and the salt samples were in the form of physiologically isotonic solution.

rats = assay: Acute toxicity test in rats; assay type: in vivo; conditions: intraperitoneal, 250, 500, 750 or 1000 mg/kg, 5-days' observation
Protocol: Acute toxicity tests were performed using rats, each group consisting of 5 rats each weighing approximately 200 g, on 7-ketocholesteryl hydrogen succinate, 7-ketocholesteryl hydrogen phthalate, sodium 7-ketocholesteryl succinate, ammonium 7-ketocholesteryl succinate, 7-hydroxycholesteryl hydrogen succinate, 7β-hydroxycholesteryl hydrogen phthalate, sodium 7-hydroxycholesteryl succinate, and sodium 7β-hydroxycholesteryl phthalate. Each of the compounds of salt type was made into a physiologically isotonic aqueous solution, and each of the compounds of ester type was dispersed with a surfactant and by ultrasonic wave treatment to give a uniform dispersion. Thereafter, each of them was administered intraperitoneally in an amount of 250 mg/kg, 500 mg/kg, 750 mg/kg, or 1000 mg/kg. After 5-days' observation, no rat died.

SMILES	anti-inflammatory effect [1]	immunosuppressive effect [1]	IC50 (PHA reaction) [µg/mL]	Swelling rate of edema ([2]; control 82, 50 mg/kg) [%]	death of rats (acute toxicity) (rats)	Swelling rate of edema ([2]; control 82) [%]	Concentration for 50% inhibition (PHA reaction) [µg/mL]
CC(C)CCC[C@@H](C)[C@H]1CC[C@H]2[C@@H]3C(O)C=C4C[C@@H](O)CC[C@]4(C)[C@H]3CC[C@]12C (stereo partly shown) [7-hydroxycholesterol]	effective	effective as immunosuppressive agent					
CC(C)CCC[C@@H](C)[C@H]1CC[C@H]2[C@@H]3C(O)C=C4C[C@@H](OC(=O)CCC(=O)O)CC[C@]4(C)[C@H]3CC[C@]12C (stereo partly shown) [7-hydroxycholesteryl hydrogen succinate]			3	29	no rat died		
CC(C)CCC[C@@H](C)[C@H]1CC[C@H]2[C@@H]3C(=O)C=C4C[C@@H](O)CC[C@]4(C)[C@H]3CC[C@]12C [7-ketocholesterol]	effective	effective as immunosuppressive agent					
CC(C)CCC[C@@H](C)[C@H]1CC[C@H]2[C@@H]3C(=O)C=C4C[C@@H](OC(=O)c5ccccc5C(=O)O)CC[C@]4(C)[C@H]3CC[C@]12C [7-ketocholesteryl hydrogen phthalate]			4		no rat died	28	
CC(C)CCC[C@@H](C)[C@H]1CC[C@H]2[C@@H]3C(=O)C=C4C[C@@H](OC(=O)CCC(=O)O)CC[C@]4(C)[C@H]3CC[C@]12C [7-ketocholesteryl hydrogen succinate]			4		no rat died	30	
CC(C)CCC[C@@H](C)[C@H]1CC[C@H]2[C@@H]3[C@@H](O)C=C4C[C@@H](OC(=O)c5ccccc5C(=O)O)CC[C@]4(C)[C@H]3CC[C@]12C [7β-hydroxycholesteryl hydrogen phthalate]			3	30	no rat died		
CC(C)CCC[C@@H](C)[C@H]1CC[C@H]2[C@@H]3C(O)C=C4C[C@@H](OC(=O)CCC(=O)O)CC[C@]4(C)[C@H]3CC[C@]12C (stereo partly shown) [Sodium 7-hydroxycholesteryl succinate, sodium 7-hydroxycholesteryl succinate]				28	no rat died		3
CC(C)CCC[C@@H](C)[C@H]1CC[C@H]2[C@@H]3[C@@H](O)C=C4C[C@@H](OC(=O)c5ccccc5C(=O)O)CC[C@]4(C)[C@H]3CC[C@]12C [Sodium 7β-hydroxycholesteryl phthalate]				31	no rat died		4
